Measured values as given in patent publication US6410552B1, “Benzoether and related compositions and methods” (Ortho-McNeil Pharmaceutical, Inc., priority 2000, dated 2002).

Molecular target: T1, calcium channel (Oryctolagus cuniculus, UniProt P15381)
T1 construct: from tissue; host or cells: rabbit heart membranes
Experiment: Assay for Inhibition of Nitrendipine Binding (3H-nitrendipine, heart membranes)
Conditions: displacement of 3H-nitrendipine (0.05-0.50 nM) from rabbit heart membranes, 90 minutes at 4° C.
Procedure: Female, New Zealand white rabbits (1-2 kg) are sacrificed by cervical dislocation, and the heart is immediately removed, cleaned and chopped into small pieces. The tissue is homogenized in 5×times volume of 0.05M Hepes buffer, pH 7.4. The homogenate is centrifuged at 4000 g for 10 minutes, and the supernatant is re-centrifuged at 42,000×g for 90 minutes. The resulting membrane pellet is resuspended (0.7 ml/g weight) in 0.05M Hepes, pH 7.4 and stored at […] until used. Each tube of the binding assay contains ^3H-nitrendipine (0.05-0.50 nM), buffer, membranes (0.10 ml), and test compound in a total volume of 1.0 ml. After 90 minutes at 4° C., the bound nitrendipine is separated from the unbound by filtration on Whatman GF/C filters. After rinsing, the filters are dried and counted in a liquid scintillation counter.
Non-specific binding of ^3H-nitrendipine (that amount bound in the presence of excess unlabelled nitrendipine) is subtracted from the total bound to obtain specifically bound radiolabeled nitrendipine. The amount of specifically bound nitrendipine in the presence of a test compound is compared to that amount bound in the absence of a compound. A percent displacement (or inhibition) can then be calculated.

T1 sequence (P15381 whole entry, other chains not shown): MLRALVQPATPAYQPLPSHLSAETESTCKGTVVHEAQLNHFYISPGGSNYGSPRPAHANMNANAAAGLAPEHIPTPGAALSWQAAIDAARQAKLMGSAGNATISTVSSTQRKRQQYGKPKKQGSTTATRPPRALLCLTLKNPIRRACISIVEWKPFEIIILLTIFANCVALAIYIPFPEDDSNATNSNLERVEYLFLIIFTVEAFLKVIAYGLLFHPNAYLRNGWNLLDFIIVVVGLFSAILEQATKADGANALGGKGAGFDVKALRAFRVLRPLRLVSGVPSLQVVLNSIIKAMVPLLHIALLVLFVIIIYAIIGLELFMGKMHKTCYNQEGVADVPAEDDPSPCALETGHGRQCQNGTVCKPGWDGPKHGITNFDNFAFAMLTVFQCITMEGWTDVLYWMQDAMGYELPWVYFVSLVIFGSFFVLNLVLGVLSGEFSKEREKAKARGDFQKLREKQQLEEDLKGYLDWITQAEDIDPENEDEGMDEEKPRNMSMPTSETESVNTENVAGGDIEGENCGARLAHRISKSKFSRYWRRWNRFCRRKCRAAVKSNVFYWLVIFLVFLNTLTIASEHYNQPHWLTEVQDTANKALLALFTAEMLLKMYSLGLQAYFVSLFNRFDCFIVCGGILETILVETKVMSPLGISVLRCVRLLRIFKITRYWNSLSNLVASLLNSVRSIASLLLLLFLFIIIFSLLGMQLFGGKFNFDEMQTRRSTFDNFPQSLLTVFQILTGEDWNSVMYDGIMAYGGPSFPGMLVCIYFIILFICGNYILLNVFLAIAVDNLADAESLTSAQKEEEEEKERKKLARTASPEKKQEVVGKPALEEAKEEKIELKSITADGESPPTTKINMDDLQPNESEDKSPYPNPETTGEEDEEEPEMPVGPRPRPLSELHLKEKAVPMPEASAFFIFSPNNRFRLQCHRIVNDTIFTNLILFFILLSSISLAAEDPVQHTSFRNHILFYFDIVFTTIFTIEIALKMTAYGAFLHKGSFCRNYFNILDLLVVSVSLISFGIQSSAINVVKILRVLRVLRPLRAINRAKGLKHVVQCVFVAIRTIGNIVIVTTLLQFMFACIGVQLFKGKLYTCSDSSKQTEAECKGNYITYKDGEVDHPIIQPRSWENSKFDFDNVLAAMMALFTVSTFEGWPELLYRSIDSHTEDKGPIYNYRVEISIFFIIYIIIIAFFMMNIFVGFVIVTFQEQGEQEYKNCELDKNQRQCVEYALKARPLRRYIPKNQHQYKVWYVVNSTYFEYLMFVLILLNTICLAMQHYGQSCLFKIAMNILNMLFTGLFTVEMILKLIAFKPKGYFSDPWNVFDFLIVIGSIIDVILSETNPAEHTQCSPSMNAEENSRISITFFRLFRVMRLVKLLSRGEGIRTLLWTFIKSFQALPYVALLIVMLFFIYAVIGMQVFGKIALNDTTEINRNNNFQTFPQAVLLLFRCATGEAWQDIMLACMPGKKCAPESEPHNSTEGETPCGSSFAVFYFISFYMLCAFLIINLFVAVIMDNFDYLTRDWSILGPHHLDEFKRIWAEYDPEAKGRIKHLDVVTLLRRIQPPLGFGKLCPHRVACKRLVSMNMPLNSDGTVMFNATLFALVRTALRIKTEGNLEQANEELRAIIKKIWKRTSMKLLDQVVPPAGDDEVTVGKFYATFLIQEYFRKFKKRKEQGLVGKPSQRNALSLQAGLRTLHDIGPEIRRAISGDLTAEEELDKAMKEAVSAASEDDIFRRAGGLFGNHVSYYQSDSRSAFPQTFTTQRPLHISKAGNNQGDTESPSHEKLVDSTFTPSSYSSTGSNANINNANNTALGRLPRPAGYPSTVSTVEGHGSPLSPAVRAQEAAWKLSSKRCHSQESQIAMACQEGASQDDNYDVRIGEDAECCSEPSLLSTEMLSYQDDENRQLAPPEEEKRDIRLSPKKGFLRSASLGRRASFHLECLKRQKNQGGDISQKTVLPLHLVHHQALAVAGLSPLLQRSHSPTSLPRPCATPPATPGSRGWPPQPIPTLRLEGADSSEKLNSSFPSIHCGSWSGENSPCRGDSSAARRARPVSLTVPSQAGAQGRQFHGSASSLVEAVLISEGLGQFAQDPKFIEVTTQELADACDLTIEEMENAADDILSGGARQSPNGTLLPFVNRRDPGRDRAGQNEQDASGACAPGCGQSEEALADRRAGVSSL
T1 sequence (P13806 27-960 partner limits assumed, other chains not shown): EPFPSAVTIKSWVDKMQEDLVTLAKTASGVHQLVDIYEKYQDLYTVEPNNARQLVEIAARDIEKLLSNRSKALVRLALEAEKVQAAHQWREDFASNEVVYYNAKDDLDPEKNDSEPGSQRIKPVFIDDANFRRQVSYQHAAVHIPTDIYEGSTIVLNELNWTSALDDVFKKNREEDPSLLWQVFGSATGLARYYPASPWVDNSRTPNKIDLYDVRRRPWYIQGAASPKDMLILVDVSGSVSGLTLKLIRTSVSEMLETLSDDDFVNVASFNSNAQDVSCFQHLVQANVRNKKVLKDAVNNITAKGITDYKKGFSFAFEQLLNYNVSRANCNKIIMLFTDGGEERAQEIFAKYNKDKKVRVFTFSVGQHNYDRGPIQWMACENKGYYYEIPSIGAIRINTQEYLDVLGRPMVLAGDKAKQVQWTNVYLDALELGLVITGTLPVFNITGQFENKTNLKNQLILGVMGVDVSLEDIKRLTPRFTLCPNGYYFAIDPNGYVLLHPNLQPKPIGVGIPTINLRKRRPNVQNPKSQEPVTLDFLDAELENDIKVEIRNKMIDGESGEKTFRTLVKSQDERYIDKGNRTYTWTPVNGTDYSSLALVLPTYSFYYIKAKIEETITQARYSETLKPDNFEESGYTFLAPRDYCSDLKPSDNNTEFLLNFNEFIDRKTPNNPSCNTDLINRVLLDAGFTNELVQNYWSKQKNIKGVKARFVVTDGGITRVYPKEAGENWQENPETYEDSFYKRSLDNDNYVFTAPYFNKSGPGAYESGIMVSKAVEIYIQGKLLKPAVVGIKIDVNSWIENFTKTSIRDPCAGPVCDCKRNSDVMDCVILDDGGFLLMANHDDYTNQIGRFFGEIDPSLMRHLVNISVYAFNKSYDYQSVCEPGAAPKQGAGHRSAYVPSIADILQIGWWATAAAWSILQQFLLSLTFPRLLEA
T1 sequence (P13806 961-1106 partner limits assumed, other chains not shown): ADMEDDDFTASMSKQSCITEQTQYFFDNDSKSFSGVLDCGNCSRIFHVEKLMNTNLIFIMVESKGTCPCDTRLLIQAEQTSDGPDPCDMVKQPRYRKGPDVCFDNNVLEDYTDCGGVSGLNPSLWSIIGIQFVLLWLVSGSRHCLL

SMILES | IC50
COC(=O)C1=C(C)NC2=C(C1c1ccccc1Cl)S(=O)(=O)c1ccccc1OC2 (stereo not shown) [Compound 1, 1H-[1,5]Benzoxathiepino[3,4-b]pyridine-3-carboxylic acid, 4-(2-chlorophenyl)-4,11-dihydro-2-methyl-, methyl ester, 5,5-dioxide] | 61 nM
COC(=O)C1=C(C)NC2=C(C1c1cccc([N+](=O)[O-])c1)S(=O)(=O)c1ccccc1OC2 (stereo not shown) [Compound 3, 1H-[1,5]Benzoxathiepino[3,4-b]pyridine-3-carboxylic acid, 4,11-dihydro-2-methyl-4-(3-nitrophenyl)-, methyl ester, 5,5-dioxide] | 33 nM
CC1=C(C(=O)OCCN(C)Cc2ccccc2)C(c2cccc([N+](=O)[O-])c2)C2=C(COc3ccccc3S2(=O)=O)N1 (stereo not shown) [Compound 4, 1H-[1,5]Benzoxathiepino[3,4-b]pyridine-3-carboxylic acid, 4,11-dihydro-2-methyl-4-(3-nitrophenyl)-, 2-[methyl(phenylmethyl)amino]ethyl ester, 5,5-dioxide] | 45 nM
CC1=C(C(=O)OCCN(C)Cc2ccccc2)C(c2cccc(Cl)c2)C2=C(COc3ccccc3S2(=O)=O)N1 (stereo not shown) [Compound 5, 1H-[1,5]Benzoxathiepino[3,4-b]pyridine-3-carboxylic acid, 4-(3-chlorophenyl)-4,11-dihydro-2-methyl-, 2-[methyl(phenylmethyl)amino]ethyl ester, 5,5-dioxide] | 109 nM

Continued, values first:

IC50 | SMILES
59 nM | CC1=C(C(=O)OCCN(C)Cc2ccccc2)C(c2ccccc2Cl)C2=C(COc3ccccc3S2(=O)=O)N1 (stereo not shown) [Compound 2, 1H-[1,5]Benzoxathiepino[3,4-b]pyridine-3-carboxylic acid, 4-(2-chlorophenyl)-4,11-dihydro-2-methyl-, 2-[methyl(phenylmethyl)amino]ethyl ester, 5,5-dioxide]
21 nM | CC1=C(C(=O)OCCN(C)Cc2ccccc2)C(c2cccc(Cl)c2Cl)C2=C(COc3ccccc3S2(=O)=O)N1 (stereo not shown) [Compound 6, 1H-[1,5]Benzoxathiepino[3,4-b]pyridine-3-carboxylic acid, 4-(2,3-dichlorophenyl)4,11-dihydro-2-methyl-, 2-[methyl(phenylmethyl)amino]ethyl ester, 5,5-dioxide]
47 nM | CC1=C(C(=O)OCCN(C)Cc2ccccc2)C(c2c(F)cccc2Cl)C2=C(COc3ccccc3S2(=O)=O)N1 (stereo not shown) [Compound 7, 1H-[1,5]Benzoxathiepino[3,4-b]pyridine-3-carboxylic acid, 4-(2-chloro-6-fluorophenyl)-4,11-dihydro-2-methyl-, 2-[methyl(phenylmethyl)amino]ethyl ester, 5,5-dioxide]
